Laboratory results published in ChEMBL document CHEMBL1201862, “PubChem BioAssay data set” (2004).
Calls of active or inactive are those of the source.

Assays:
[1] = blockade of melanocortin 4 receptor signaling – cell-based, plate reader, cherry pick, counter-screen for LGR2 antagonist project, dose response (AID 743444); type: functional;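 further: transfected HEK 293 cells stimulated with alpha-MSH peptide; potency of inhibitors of the alpha-MSH evoked signal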
HEK293 = assay: EBV LMP1 TES2 canonical NF-kB signalling blockers – cell-based, HEK293, luciferase, cherry-pick, dose response (AID 588343); type: functional; settings: Homo sapiens
[2] = blockers of bursicon-stimulated LGR2 cAMP reporter – cell-based, HEK293, CRE-luciferase reporter, cherry pick, set 2, dose response (AID 743343); type: functional;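 further: transfected cells were stimulated with diluted bursicon conditioned medium after compound addition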
Cytochrome P450 2D6 = Cytochrome P450 2D6 (Homo sapiens, UniProt P10635);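 further: CYP2D6 member of a cytochrome P450 panel assay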
[3] = THP-1 cell cytotoxicity, dose response, cytotoxicity control for non-replicating M. tuberculosis project (AID 489025); type: functional
Streptokinase A = biological target: T1, Streptokinase A (Streptococcus pyogenes serotype M1, UniProt P10520); assay: viability-normalized secreted streptokinase activity reduction – plasminogen activation absorbance, OD405, dose response (AID 1914); type: functional, Streptococcus pyogenes M1 GAS;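 further: secreted streptokinase activity via plasminogen activation per viability signal from cell pellet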
T1 sequence (P10520 whole entry): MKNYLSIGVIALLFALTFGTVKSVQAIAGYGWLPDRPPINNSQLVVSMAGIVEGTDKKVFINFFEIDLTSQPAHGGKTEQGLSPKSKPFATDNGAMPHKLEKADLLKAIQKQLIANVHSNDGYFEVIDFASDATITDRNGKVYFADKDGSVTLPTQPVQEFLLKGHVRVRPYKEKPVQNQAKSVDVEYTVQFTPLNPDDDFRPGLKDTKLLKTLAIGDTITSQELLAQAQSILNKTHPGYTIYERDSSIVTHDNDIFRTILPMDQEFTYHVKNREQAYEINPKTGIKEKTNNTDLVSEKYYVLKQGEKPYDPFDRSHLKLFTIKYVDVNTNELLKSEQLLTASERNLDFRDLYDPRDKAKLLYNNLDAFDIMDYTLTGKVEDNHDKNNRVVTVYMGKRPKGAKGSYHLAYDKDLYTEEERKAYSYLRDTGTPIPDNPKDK

[4] = Vero E6 cell cytotoxicity, dose response, cytotoxicity control for non-replicating M. tuberculosis project, secondary assay (AID 492998); type: functional, VeroE6; settings: Vero C1008
[5] = tested on: Streptococcus sp. 'group A'; assay: Streptococcus pyogenes SK(-)GAS viability under kanamycin – luminescence, BacTiterGlo, confirmation, counter-screen for streptokinase expression inhibitor project, dose response (AID 1900); type: functional, organism-based
cells [6] = type: functional
Cytochrome P450 3A4 [7] = biological target: T2, Cytochrome P450 3A4 (Homo sapiens, UniProt P08684)
Streptococcus = assay: GAS UMAA2166 growth inhibition – luminescence, BacTiterGlo, counter-screen for streptokinase expression inhibitor project, dose response (AID 1915); type: functional, organism-based;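 further: potency for reduction of bacterial viability or growth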
[8] = microbe, parasite or virus in culture; type: functional; settings: Mycobacterium tuberculosis
[9] = HepG2 cell cytotoxicity, dose response, cytotoxicity control for non-replicating M. tuberculosis project (AID 489018); type: functional; settings: Mycobacterium tuberculosis
[10] = biological target: Voltage-dependent T-type calcium channel subunit alpha-1H (Homo sapiens, UniProt O95180); type: functional;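 further: channel activity triggered by adding a high calcium stimulation buffer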
cells [11] = type: functional, cell-based
cells [12] = type: functional, cell-based; remark: listed apart in the source
Cytochrome P450 3A4 [13] = biological target: T2, Cytochrome P450 3A4; settings: Potency
[14] = A549 cell cytotoxicity, dose response, cytotoxicity control, plate reader, cherry-pick, antagonist series (AID 743412); type: functional, cell-based
[15] = toxicity toward HepG2 liver cells – cell-based, plate reader, cherry-pick, antagonist series, cytotoxicity control, dose response (AID 743416); type: functional
[16] = Luminescence Cell-Based Dose Retest to Confirm Inhibitors of Cancer Stem Cells. [Related pubchem assays (depositor defined):AID2717, AID2721]; type: functional; settings: Homo sapiens
[17] = viability of PTEN-deleted HCT116 cells – cell-based, HCT116 PTEN knockout, dose response (AID 1047); type: functional;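 further: HCT116 colon tumor cells with PTEN knocked out; cells exposed to compound for 60 hours before readout; potency for loss of cell viability measured by luminescence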
[18] = loss of viability in HepG2 cells – cell-based, CellTiter-Glo, cherry-picked, cytotoxicity control for Shn3 inhibitor project, dose response (AID 624134); type: functional
[19] = non-specific 3'UTR reporter inhibition in Clone20-Shn3RL – cell-based, Renilla luciferase, cherry-picked, counter-screen for Shn3 inhibitor project, dose response (AID 624133); type: functional
[20] = biological target: T3, Ubiquitin-conjugating enzyme E2 N (Homo sapiens, UniProt P61088); type: functional;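 further: Dose-response confirmation in a TR-FRET assay detecting UBC13-driven polyubiquitin chain formation, inhibition measured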
T3 sequence (P61088 whole entry): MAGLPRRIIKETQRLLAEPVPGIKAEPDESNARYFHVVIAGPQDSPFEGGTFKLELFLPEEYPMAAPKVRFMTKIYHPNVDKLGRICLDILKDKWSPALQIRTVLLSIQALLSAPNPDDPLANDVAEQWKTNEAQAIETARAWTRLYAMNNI

[21] = viability of HCT116 lacking mutant beta-catenin – cell-based, human colon tumor, dose response (AID 1045); type: functional;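 further: HCT116 colon tumor cells with beta catenin knocked out; cells exposed to compound for 60 hours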
[22] = reduction of Shn3 3'UTR-driven luciferase in osteoblasts – cell-based, Clone20 osteoblasts, firefly luciferase, cherry-picked, dose response (AID 624132); type: functional;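 further: firefly luciferase luminescence from reporter carrying the Shn3 3'UTR in osteoblasts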
H9c2 = assay: cells; type: functional, cell-based; settings: Rattus norvegicus, H9c2, Myocardium;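 further: confirmatory concentration-response retest of ultra-high-throughput screening hits for modulation of myocardial damage; cell death induced by hydrogen peroxide oxidative stress; compound pretreatment for 60 min then peroxide exposure for 2 h; potency is for protecting the cells against peroxide damage rather than for killing them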
Cytochrome P450 1A2 = biological target: T4, Cytochrome P450 1A2 (Homo sapiens, UniProt P05177);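 further: PubChem cytochrome P450 panel assay, CYP1A2 panel member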
T4 sequence (P05177 whole entry): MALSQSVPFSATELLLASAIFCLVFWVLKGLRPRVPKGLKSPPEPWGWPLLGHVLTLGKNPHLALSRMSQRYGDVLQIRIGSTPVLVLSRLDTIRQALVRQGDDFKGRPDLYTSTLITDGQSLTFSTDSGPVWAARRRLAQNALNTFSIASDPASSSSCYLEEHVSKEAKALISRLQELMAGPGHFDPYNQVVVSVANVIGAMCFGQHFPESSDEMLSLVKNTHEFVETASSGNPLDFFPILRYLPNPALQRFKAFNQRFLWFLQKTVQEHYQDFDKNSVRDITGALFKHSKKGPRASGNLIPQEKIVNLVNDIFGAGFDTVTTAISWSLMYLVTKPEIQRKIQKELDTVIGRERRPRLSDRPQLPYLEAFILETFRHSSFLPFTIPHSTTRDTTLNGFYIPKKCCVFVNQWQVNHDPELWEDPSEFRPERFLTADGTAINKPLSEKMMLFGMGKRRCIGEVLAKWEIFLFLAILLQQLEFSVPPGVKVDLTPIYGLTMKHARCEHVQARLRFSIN

[23] = OVCAR8 cell viability loss – plate reader, dry powder samples, PAX8 project, dose response (AID 743197); type: functional, cell-based; settings: OVCAR-8
Paired box protein Pax-8 = Paired box protein Pax-8 (Homo sapiens, UniProt Q06710); assay: PAX8 transcriptional activity inhibition in RMG-I – RMG-I cells, luciferase, cherry-pick, dose response (AID 687027); type: functional, cell-based;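 further: luciferase reporter driven by Pax8 target thyroperoxidase promoter measured by SteadyGlo luminescence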
[24] = OVCAR-3 cell viability loss – plate reader, dry powder samples, PAX8 inhibitor project, dose response (AID 743044); type: functional, cell-based
[25] = P. falciparum Dd2 growth inhibitors, dose response, SYBR Green, cherry-picked samples (AID 1159567); type: functional, cell-based

T2 sequence (P08684 whole entry): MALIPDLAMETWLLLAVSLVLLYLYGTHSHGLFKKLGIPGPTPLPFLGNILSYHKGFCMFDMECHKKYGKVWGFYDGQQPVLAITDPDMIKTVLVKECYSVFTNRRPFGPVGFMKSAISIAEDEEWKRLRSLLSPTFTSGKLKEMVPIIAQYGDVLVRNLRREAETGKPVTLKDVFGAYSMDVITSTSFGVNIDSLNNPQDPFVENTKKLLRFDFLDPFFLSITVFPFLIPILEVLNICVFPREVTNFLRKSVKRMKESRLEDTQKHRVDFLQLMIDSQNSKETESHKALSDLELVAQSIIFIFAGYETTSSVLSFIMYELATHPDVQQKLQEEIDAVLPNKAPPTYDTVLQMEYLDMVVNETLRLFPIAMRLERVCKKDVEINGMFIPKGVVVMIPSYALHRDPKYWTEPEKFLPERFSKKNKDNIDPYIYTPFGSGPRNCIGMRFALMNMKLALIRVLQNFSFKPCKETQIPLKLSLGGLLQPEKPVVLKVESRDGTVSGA
Chain of Voltage-dependent T-type calcium channel subunit alpha-1H (O95180 whole entry): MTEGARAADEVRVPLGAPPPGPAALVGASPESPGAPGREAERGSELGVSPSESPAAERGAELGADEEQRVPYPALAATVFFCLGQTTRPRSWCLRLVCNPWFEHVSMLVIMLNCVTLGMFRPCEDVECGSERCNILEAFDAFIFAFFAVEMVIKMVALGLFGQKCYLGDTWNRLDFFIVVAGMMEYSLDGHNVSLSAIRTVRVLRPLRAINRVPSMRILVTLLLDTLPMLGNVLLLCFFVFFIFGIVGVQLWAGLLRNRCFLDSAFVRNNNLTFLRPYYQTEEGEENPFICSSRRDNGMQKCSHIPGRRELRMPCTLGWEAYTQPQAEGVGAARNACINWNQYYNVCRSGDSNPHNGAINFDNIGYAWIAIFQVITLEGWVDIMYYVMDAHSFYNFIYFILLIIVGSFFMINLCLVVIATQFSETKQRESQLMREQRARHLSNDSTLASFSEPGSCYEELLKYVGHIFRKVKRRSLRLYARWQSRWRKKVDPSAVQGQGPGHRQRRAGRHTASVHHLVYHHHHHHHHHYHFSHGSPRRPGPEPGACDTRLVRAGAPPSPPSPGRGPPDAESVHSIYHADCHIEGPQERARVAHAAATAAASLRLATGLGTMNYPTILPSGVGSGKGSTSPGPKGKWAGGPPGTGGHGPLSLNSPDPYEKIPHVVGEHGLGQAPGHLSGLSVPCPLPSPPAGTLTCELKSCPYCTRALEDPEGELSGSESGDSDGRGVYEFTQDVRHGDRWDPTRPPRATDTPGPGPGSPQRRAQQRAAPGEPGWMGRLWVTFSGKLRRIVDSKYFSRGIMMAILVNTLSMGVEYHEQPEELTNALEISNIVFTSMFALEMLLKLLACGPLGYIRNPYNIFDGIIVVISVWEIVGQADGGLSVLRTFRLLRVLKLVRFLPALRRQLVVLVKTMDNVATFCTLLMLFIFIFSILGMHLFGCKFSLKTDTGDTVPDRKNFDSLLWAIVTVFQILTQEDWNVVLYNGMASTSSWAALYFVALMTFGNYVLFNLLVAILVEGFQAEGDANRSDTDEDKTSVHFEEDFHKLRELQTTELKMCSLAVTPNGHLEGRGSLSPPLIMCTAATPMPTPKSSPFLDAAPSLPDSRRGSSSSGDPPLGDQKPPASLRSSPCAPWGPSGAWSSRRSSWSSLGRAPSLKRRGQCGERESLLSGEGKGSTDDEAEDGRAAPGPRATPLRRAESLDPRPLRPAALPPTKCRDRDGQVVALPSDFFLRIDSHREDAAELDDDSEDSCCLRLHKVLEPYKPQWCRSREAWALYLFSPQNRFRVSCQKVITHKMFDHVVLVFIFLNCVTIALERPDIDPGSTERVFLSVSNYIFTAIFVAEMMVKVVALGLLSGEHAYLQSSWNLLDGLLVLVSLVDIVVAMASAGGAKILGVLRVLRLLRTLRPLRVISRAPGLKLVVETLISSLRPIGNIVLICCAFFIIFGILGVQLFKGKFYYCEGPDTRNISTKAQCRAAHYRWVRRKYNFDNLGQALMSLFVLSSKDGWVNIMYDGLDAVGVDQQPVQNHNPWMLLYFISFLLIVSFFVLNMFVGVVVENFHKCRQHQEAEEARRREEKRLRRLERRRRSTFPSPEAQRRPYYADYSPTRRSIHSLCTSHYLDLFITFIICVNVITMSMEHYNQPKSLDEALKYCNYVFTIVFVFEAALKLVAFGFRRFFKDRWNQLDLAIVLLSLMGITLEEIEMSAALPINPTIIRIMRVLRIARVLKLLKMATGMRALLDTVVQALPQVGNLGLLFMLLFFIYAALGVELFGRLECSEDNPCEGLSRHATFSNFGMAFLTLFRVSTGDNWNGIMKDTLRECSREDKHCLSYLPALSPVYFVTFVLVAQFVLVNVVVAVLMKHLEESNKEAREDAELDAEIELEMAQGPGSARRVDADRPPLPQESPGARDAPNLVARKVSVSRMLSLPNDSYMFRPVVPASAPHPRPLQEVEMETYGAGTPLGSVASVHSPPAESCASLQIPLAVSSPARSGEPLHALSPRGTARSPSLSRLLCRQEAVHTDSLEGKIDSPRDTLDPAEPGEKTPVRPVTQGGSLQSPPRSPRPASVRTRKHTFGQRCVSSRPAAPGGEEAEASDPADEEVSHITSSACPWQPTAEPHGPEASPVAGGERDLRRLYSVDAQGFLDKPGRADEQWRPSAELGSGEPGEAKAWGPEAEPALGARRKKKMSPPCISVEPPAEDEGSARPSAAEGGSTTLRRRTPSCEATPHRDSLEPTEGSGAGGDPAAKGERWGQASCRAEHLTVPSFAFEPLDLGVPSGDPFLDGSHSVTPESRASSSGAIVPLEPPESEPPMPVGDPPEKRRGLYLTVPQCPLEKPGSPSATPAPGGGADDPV
Chain of Paired box protein Pax-8 (Q06710 whole entry): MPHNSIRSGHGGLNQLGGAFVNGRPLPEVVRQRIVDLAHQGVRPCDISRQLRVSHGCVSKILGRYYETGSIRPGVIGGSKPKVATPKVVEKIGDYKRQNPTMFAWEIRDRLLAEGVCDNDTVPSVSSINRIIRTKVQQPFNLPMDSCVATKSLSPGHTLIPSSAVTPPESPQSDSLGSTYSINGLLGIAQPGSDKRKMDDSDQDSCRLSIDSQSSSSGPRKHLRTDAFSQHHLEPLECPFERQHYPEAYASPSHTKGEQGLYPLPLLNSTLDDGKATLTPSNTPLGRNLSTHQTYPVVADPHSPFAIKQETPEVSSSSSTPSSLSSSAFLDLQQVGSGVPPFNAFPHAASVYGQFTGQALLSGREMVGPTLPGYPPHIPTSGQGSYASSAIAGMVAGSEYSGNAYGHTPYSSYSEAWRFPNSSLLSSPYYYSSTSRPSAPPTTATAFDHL
Chain of Cytochrome P450 2D6 (P10635 whole entry): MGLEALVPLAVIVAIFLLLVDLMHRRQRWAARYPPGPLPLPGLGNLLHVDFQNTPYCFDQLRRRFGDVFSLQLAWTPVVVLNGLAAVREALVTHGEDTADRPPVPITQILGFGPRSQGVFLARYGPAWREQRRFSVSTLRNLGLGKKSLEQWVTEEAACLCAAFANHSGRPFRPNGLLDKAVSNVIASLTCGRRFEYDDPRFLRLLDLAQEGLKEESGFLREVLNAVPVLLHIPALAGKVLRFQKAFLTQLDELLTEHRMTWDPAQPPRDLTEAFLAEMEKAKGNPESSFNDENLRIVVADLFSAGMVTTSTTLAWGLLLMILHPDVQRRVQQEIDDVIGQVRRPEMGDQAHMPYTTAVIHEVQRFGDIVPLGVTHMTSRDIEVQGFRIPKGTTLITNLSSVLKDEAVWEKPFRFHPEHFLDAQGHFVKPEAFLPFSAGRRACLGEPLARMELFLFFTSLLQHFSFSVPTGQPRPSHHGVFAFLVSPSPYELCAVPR

Clc1ccc(-n2ncc3c(N4CCCC4)ncnc32)cc1
AC50 [1]: 2.7 µM (active) | AC50 (HEK293): 1.32 µM (active) | AC50 [2]: 2.04 µM (active)

Cc1nn(-c2nc3ccccc3[nH]2)c(N)c1-c1ccc(Cl)cc1
AC50 (Cytochrome P450 2D6): 12.6 µM (inconclusive) | CC50 [3]: 25.8 µM (active) | EC50 (Streptokinase A): > 150 µM (not active) | CC50 [4]: 17.2 µM (active) | EC50 [5]: 2.42 µM (active) | IC50 (cells [6]): 1.23 µM (active) | AC50 (Cytochrome P450 3A4 [7]): 25.1 µM (inconclusive) | EC50 (Streptococcus): 8.49 µM (active) | CC50 [8]: 31.1 µM (active) | CC50 [9]: 16.2 µM (active)

COc1ccc(S(=O)(=O)N(Cc2ccccc2)Cc2nc(-c3ccccc3)no2)cc1
EC50 [10]: 6.27 µM (active)

O=C(NCCSc1c[nH]c2ccccc12)c1ccc(Br)o1
EC50 (cells [11]): > 350 µM (not active) | EC50 (cells [12]): > 350 µM (not active)

O=C1CN(c2ccccc2)C(=O)N1
EC50 (cells [11]): > 350 µM (not active) | EC50 (cells [12]): > 350 µM (not active)

C/C=C/OC(=O)NC(c1cccc(C)c1)[C@@]1(C(=O)OCC)CCCC1=O (some centres not stated)
AC50 (Cytochrome P450 3A4 [13]): 1.26 µM (inconclusive)

COc1ccc(CCNC(=O)c2cc(-c3cccs3)on2)cc1OC
EC50 (cells [11]): > 350 µM (not active) | EC50 (cells [12]): > 350 µM (not active)

Cc1ccc(-n2nnc(-c3nccn3C)n2)cc1
AC50 [1]: 6.81 µM (active) | AC50 [14]: > 52 µM (inactive) | AC50 [15]: > 52 µM (inactive) | AC50 [2]: 5.3 µM (active)

CCCn1c(-c2ccc(F)cc2)nc2c(NCCN3CCCCC3)nc(C)nc21
AC50 (Cytochrome P450 3A4 [13]): 15.8 µM (inconclusive)

O=C(NC(=S)NCCc1ccccc1)c1ccccc1
CC50 [9]: > 20 µM (active)

CC(C)(C)c1ccc(C(=O)NCCCN2CCN(CCCNC(=O)c3ccc(C(C)(C)C)cc3)CC2)cc1
AC50 [16]: 6.71 µM (active) | EC50 [17]: 27.9 µM (active) | AC50 [18]: 15.2 µM (active) | AC50 [19]: 1.62 µM (active) | IC50 [20]: > 20 µM (inactive) | EC50 [21]: 5.18 µM (active) | AC50 [22]: 4.84 µM (active)

COCCCn1c(N)c(C(=O)Nc2sc3c(c2C(=O)OC)CCCC3)c2nc3ccccc3nc21
EC50 [17]: 27.8 µM (active) | EC50 [21]: 33.9 µM (active) | IC50 (H9c2): > 79 µM (inactive) | AC50 (Cytochrome P450 1A2): 10 µM (inconclusive)

O=C(NCc1ccc(F)cc1)C1CCN(S(=O)(=O)N2CCOCC2)CC1
EC50 (cells [11]): > 350 µM (not active) | EC50 (cells [12]): > 350 µM (not active)

O=C(NC(=S)Nc1ccccn1)c1cccc([N+](=O)[O-])c1
EC50 (cells [11]): > 350 µM (not active) | EC50 (cells [12]): > 350 µM (not active)

O=C(CCc1ccccc1)N1CCN(c2ccc(Cl)cc2)CC1
EC50 [10]: 4.01 µM (active)

Nc1cc(=O)[nH]c(=O)n1Cc1ccccc1
AC50 (Cytochrome P450 3A4 [13]): 25.1 µM (inconclusive)

Cn1c(=O)c(C(=O)Nc2ccccn2)c(O)c2ccccc21
CC50 [3]: 19 µM (active) | CC50 [4]: 11.3 µM (active) | IC50 (cells [6]): 11.1 µM (active) | CC50 [9]: > 20 µM (active)

CCn1ncc(C2=NOC(C(=O)Nc3ccc4c(c3)OCO4)C2)c1C (configuration not stated)
EC50 (cells [11]): > 350 µM (not active) | EC50 (cells [12]): > 350 µM (not active)

Cc1nn(Cc2ccccc2)c(Cl)c1C(=O)OCc1nnc(-c2ccccc2)o1
EC50 [10]: 30.4 µM (active)

CCCCCn1c(=O)c(C(=O)Nc2nc(CC(=O)OCC)cs2)c(O)c2ccccc21
CC50 [3]: 11.1 µM (active) | CC50 [4]: 11.8 µM (active) | IC50 (cells [6]): 2.79 µM (active) | CC50 [9]: > 20 µM (active)

O=[N+]([O-])c1ccc2[nH]cnc2c1
AC50 (Cytochrome P450 3A4 [13]): 25.1 µM (inconclusive)

COc1ccc(S(=O)(=O)Nc2ccc3c(c2)C(=O)N([C@H](C)CO)C[C@@H](C)[C@H](CN(C)S(=O)(=O)c2ccc(F)cc2)OCCCC[C@H](C)O3)cc1
AC50 [23]: > 70 µM (inactive) | AC50 (Paired box protein Pax-8): 4.65 µM (active)

C[C@@H]1CN([C@@H](C)CO)C(=O)c2cc(NS(=O)(=O)c3cccs3)ccc2O[C@@H](C)CCCCO[C@H]1CN(C)Cc1ccc(C(F)(F)F)cc1
AC50 (Paired box protein Pax-8): 25.2 µM (active) | AC50 [24]: 44 µM (active)

O=c1c(O)c(-c2ccccc2)oc2cccc(O)c12
AC50 (Cytochrome P450 3A4 [13]): 12.6 µM (inconclusive)

Nc1ccn([C@@H]2O[C@H](CO)[C@@H](OP(=O)(O)O)[C@H]2O)c(=O)n1
AC50 (Cytochrome P450 3A4 [13]): 7.94 µM (inconclusive)

CCc1nc(N2[C@H](C#N)[C@H](c3ccccc3-c3ccccc3F)[C@H]2CO)sc1C
AC50 [25]: 7.33 µM (active)

O=C(Cc1cccnc1)N1CC[C@H]2[C@H](CO)Nc3ccc(C#Cc4cccc(F)c4)cc3[C@H]21
AC50 [25]: 6.12 µM (active)

COc1ccccc1-c1ccc2c(c1)[C@H]1[C@H](CCN1C(=O)C1CCCC1)[C@@H](CO)N2
AC50 [25]: 4.88 µM (active)

CC(C)(C)[S@@+]([O-])N1Cc2cc(C(=O)NCCN3CCCCC3)nc(-c3cccc(-c4cccc(C#N)c4)c3)c2[C@H]1CCO
AC50 [25]: 7.56 µM (active)

COc1ccc(-c2c(O)c3c(OC)c4c(cc3oc2=O)OC(C)(C)CC4)cc1 [DIHYDROROBUSTIC ACID]
AC50 (Cytochrome P450 3A4 [13]): 25.1 µM (inconclusive)
